Our source for the IC50 and inhibition values is ChEMBL document CHEMBL5055671, “Targeting a Novel KRAS Binding Site: Application of One-Component Stapling of Small (5-6-mer) Peptides” (J Med Chem, 2021).

Bounds are passed on as bounds.

One assay concerns the target GTPase KRas (Homo sapiens, UniProt P01116, G12V). Description: Inhibition of alexa fluor 647-labeled kinase tracer 314 binding to biotinylated-KRAS G12V mutant (unknown origin) measured after 60 mins by HTRF competition binding assay. The conditions noted are these: read-out: IC50. (TR-FRET usually uses a lanthanide donor and a delayed reading to cut background.)
Assay [1] in a line: Inhibition of GDP-tagged biotinylated KRas G12C mutant (unknown origin)/GST-Raf (unknown origin) assessed as SOS-mediated nucleotide exchange measured after 1 hr by HRTF assay. Set-up: species or system Homo sapiens.
In assay [2] the test system is GTPase KRas (Homo sapiens), P01116 [G12V]. Description: Inhibition of alexa fluor 647-labeled kinase tracer 314 binding to biotinylated-KRAS G12V mutant (unknown origin) at 100 uM measured after 60 mins by HTRF competition binding assay.

For the compound `CC(C)C[C@H](NC(=O)[C@H]1CSCc2cnnn2CCCCC(=O)NCC(=O)N2CCC[C@H]2C(=O)N[C@@H](Cc2cccc3ccccc23)C(=O)N1)C(N)=O`, the concentration for half-maximal inhibition (IC50) at GTPase KRas stood at 11 µM; in assay [1], 2.5 µM.

As to `CC[C@H](C)[C@@H]1NC(=O)[C@@H]2CCCN2C(=O)CNC(=O)CCCc2cn(nn2)CC[C@@H](C(=O)N[C@@H](CC(C)C)C(N)=O)NC1=O`, at GTPase KRas, the 50% inhibitory concentration (IC50) was > 100 µM. This compound also showed an inhibition in assay [2] of 6%.

With `CC(C)C[C@H](NC(=O)[C@@H]1COCc2cnnn2CCCCC(=O)NCC(=O)N2CCC[C@H]2C(=O)N[C@@H](Cc2cccc3ccccc23)C(=O)N1)C(N)=O`, the 50% inhibitory concentration (IC50) on GTPase KRas came to 7.1 µM; in assay [1], 2.4 µM.

For `CC[C@H](C)[C@@H]1NC(=O)[C@@H]2CCCN2C(=O)[C@H](Cc2ccccc2)NC(=O)CCCCn2nncc2COC[C@@H](C(=O)N[C@@H](CC(C)C)C(N)=O)NC1=O`, the IC50 at GTPase KRas is > 100 µM. In assay [2], this compound showed an inhibition of 38%.

With `CC[C@H](C)[C@@H]1NC(=O)[C@@H]2CCCN2C(=O)[C@H](C)NC(=O)CCCC#CC#CCOC[C@@H](C(=O)N[C@@H](CC(C)C)C(N)=O)NC1=O`, at GTPase KRas, the IC50 was > 100 µM. In assay [2], the inhibition is 0%.

Regarding `C=C1/C=C/CCCC(=O)N[C@@H](C)C(=O)N2CCC[C@H]2C(=O)N[C@@H]([C@@H](C)CC)C(=O)N[C@H](C(=O)N[C@@H](CC(C)C)C(N)=O)CSC1`, at GTPase KRas, the half-inhibitory concentration (IC50) is > 100 µM. In assay [2], this compound returned an inhibition of 28%.

For `CC[C@H](C)[C@@H]1NC(=O)[C@@H]2CCCN2C(=O)[C@H](Cc2ccc(O)cc2)NC(=O)CCc2cnnn2CC[C@@H](C(=O)N[C@@H](CC(C)C)C(N)=O)NC1=O`, the half-inhibitory concentration (IC50) on GTPase KRas was > 100 µM. For the same compound, the inhibition in assay [2] is 44%.

`CC[C@H](C)[C@@H]1NC(=O)[C@@H]2CCCN2C(=O)CNC(=O)CCCc2cnnn2C[C@@H](C(=O)N[C@@H](CC(C)C)C(N)=O)NC1=O`: on GTPase KRas, the IC50 was > 100 µM. Further, in assay [2], the inhibition was 16%.

For the compound `CC(C)C[C@H](NC(=O)[C@@H]1COCc2cnnn2CCCCC(=O)N[C@@H](C)C(=O)N2CCC[C@H]2C(=O)N[C@@H](Cc2cccc3ccccc23)C(=O)N1)C(N)=O`, the IC50 at GTPase KRas stood at 9.7 µM.

In the case of `CC[C@H](C)[C@@H]1NC(=O)[C@@H]2CCCN2C(=O)[C@H](C)NC(=O)CCC/C=C/COC[C@@H](C(=O)N[C@@H](CC(C)C)C(N)=O)NC1=O`, the IC50 at GTPase KRas is > 100 µM. In addition, in assay [2], the inhibition turned out to be 5%.

Consider `NC(=O)[C@H](CC1CC1)NC(=O)[C@@H]1COCc2cnnn2CCCCC(=O)NCC(=O)N2CCC[C@H]2C(=O)N[C@@H](Cc2cccc3ccccc23)C(=O)N1`, for which, at GTPase KRas, the IC50 is 29 µM.

Turning to `CC(C)C[C@H](NC(=O)[C@@H]1COCc2cnnn2CCCCC(=O)NCC(=O)N2CCC[C@H]2C(=O)N[C@@H](Cc2cccs2)C(=O)N1)C(N)=O`, the 50% inhibitory concentration (IC50) at GTPase KRas turned out to be 53 µM.

Turning to `CC(C)C[C@H](NC(=O)[C@@H]1COCc2cnnn2CCCCC(=O)NCC(=O)N2CCC[C@H]2C(=O)N[C@@H](CC2CCCCC2)C(=O)N1)C(N)=O`, the IC50 on GTPase KRas amounted to 100 µM.

For the compound `CC[C@H](C)[C@@H]1NC(=O)[C@@H]2CCCN2C(=O)CNC(=O)CCCc2cnnn2CC[C@@H](C(=O)N[C@@H](CC(C)C)C(N)=O)NC1=O`, the IC50 at GTPase KRas was > 100 µM. The inhibition in assay [2] turned out to be 22%.

For `CC(C)C[C@H](CC(=O)[C@@H]1COCc2cnnn2CCCCC(=O)NCC(=O)N2CCC[C@H]2C(=O)C[C@@H](C)C(=O)C1)C(N)=O`, the half-maximal inhibitory concentration (IC50) at GTPase KRas worked out at 91 µM.

For the compound `CC(=O)N[C@@H](CC(=O)O)C(=O)N[C@H]1CCCn2nncc2COC[C@H](C(=O)N[C@@H](CC(C)C)C(N)=O)NC(=O)[C@H](Cc2cccc3ccccc23)NC(=O)[C@@H]2CCCN2C(=O)CNC1=O`, the half-maximal inhibitory concentration (IC50) at GTPase KRas was 38 µM.

Regarding `CC(C)C[C@H](NC(=O)[C@@H]1COCc2cnnn2CCCCC(=O)N[C@H](CC(=O)O)C(=O)N2CCC[C@H]2C(=O)N[C@@H](Cc2cccc3ccccc23)C(=O)N1)C(N)=O`, the half-maximal inhibitory concentration (IC50) at GTPase KRas amounted to 77 µM.

In the case of `CC[C@H](C)[C@@H]1NC(=O)[C@@H]2CCCN2C(=O)[C@H](C)NC(=O)CCCCn2nncc2COC[C@@H](C(=O)N[C@@H](CC(C)C)C(N)=O)NC1=O`, the IC50 on GTPase KRas was > 100 µM. The compound further registered an inhibition in assay [2] of 30%.

`CC(=O)N[C@@H](CCC(=O)O)C(=O)N[C@H]1CCCn2nncc2COC[C@H](C(=O)N[C@@H](CC(C)C)C(N)=O)NC(=O)[C@H](Cc2cccc3ccccc23)NC(=O)[C@@H]2CCCN2C(=O)CNC1=O`: the 50% inhibitory concentration (IC50) on GTPase KRas was 93 µM.

Consider `CC(C)C[C@H](NC(=O)[C@@H]1COCc2cnnn2CCCCC(=O)NCC(=O)NC(C)(C)C(=O)N[C@@H](Cc2cccc3ccccc23)C(=O)N1)C(N)=O`, for which, on GTPase KRas, the IC50 was determined as 20 µM.

In the case of `CC(C)C[C@H](NC(=O)[C@@H]1COCc2cnnn2CCCCC(=O)N[C@H](C)C(=O)N2CCC[C@H]2C(=O)N[C@@H](Cc2cccc3ccccc23)C(=O)N1)C(N)=O`, on GTPase KRas, the 50% inhibitory concentration (IC50) turned out to be 25 µM.

As for `C=C1/C=C/COC[C@@H](C(=O)N[C@@H](CC(C)C)C(N)=O)NC(=O)[C@H]([C@@H](C)CC)NC(=O)[C@@H]2CCCN2C(=O)CNC(=O)C1`, at GTPase KRas, the IC50 worked out at 98 µM. For the same compound, the inhibition in assay [2] was 46%.

On to `CC[C@H](C)[C@@H]1NC(=O)[C@@H]2CCCN2C(=O)[C@H](C)NC(=O)c2ccccc2/C=C/COC[C@@H](C(=O)N[C@@H](CC(C)C)C(N)=O)NC1=O`, for which the IC50 at GTPase KRas is > 100 µM. The inhibition in assay [2] was determined as 25%.

As for `CC(C)C[C@H](NC(=O)[C@@H]1COCc2cnnn2CCCCC(=O)NCC(=O)N2CCC[C@H]2C(=O)N[C@@H](Cc2c[nH]c3ccccc23)C(=O)N1)C(N)=O`, the 50% inhibitory concentration (IC50) on GTPase KRas stood at 18 µM.

For the compound `CC(=O)N[C@@H](Cc1cccc2ccccc12)C(=O)N[C@@H](COCc1cnnn1CCCCC(=O)NCC(N)=O)C(=O)N[C@@H](CC(C)C)C(N)=O`, the IC50 at GTPase KRas was 38 µM.

As to `CC(C)C[C@H](NC(=O)[C@@H]1COCc2cnnn2CCCCC(=O)NCC(=O)N2CCC[C@H]2C(=O)N[C@@H](CC(C)C)C(=O)N1)C(N)=O`, the half-inhibitory concentration (IC50) on GTPase KRas came out at 60 µM.

With `NC(=O)CC[C@H](NC(=O)[C@@H]1COCc2cnnn2CCCCC(=O)NCC(=O)N2CCC[C@H]2C(=O)N[C@@H](Cc2cccc3ccccc23)C(=O)N1)C(N)=O`, the half-maximal inhibitory concentration (IC50) at GTPase KRas was 50 µM.

For the compound `CC(C)C[C@H](NC(=O)[C@@H]1COCc2cnnn2CCCCC(=O)NCC(=O)N2CCCCC[C@H]2C(=O)N[C@@H](Cc2cccc3ccccc23)C(=O)N1)C(N)=O`, the IC50 at GTPase KRas is 55 µM.

For the compound `C=C1/C=C/COC[C@@H](C(=O)N[C@@H](CC(C)C)C(N)=O)NC(=O)[C@H]([C@@H](C)CC)NC(=O)[C@@H]2CCCN2C(=O)CNC(=O)CC1`, the 50% inhibitory concentration (IC50) at GTPase KRas was > 100 µM. The same compound showed an inhibition in assay [2] of 21%.

Regarding `CC(C)C[C@H](NC(=O)[C@H]1COCc2cnnn2CCCCC(=O)NCC(=O)N2CCC[C@H]2C(=O)N[C@@H](Cc2cccc3ccccc23)C(=O)N1)C(=O)N[C@@H](C)C(=O)N1CCC[C@H]1C(N)=O`, on GTPase KRas, the half-maximal inhibitory concentration (IC50) came to 46 µM.

On to `CC[C@H](C)[C@@H]1NC(=O)[C@@H]2CCCN2C(=O)CNC(=O)CCCC#CC#CCOC[C@@H](C(=O)N[C@@H](CC(C)C)C(N)=O)NC1=O`, for which, on GTPase KRas, the IC50 was > 100 µM. For the same compound, in assay [2], the inhibition stood at 0%.

Consider `CC[C@H](C)[C@@H]1NC(=O)[C@@H]2CCCN2C(=O)CNC(=O)CCCn2nncc2COC[C@@H](C(=O)N[C@@H](CC(C)C)C(N)=O)NC1=O`, for which, on GTPase KRas, the IC50 is > 100 µM. For the same compound, the inhibition in assay [2] was found to be 39%.

For `CC[C@H](C)[C@@H]1NC(=O)[C@@H]2CCCN2C(=O)CNC(=O)CCCCn2nncc2COC[C@@H](C(=O)N[C@@H](CC(C)C)C(N)=O)NC1=O`, on GTPase KRas, the IC50 turned out to be 100 µM. This compound showed an inhibition in assay [2] of 48%.

What is called IC50 is the concentration that inhibits the measured activity by half. As a reminder, the inhibition is the drop in the measured response relative to a control, in per cent. Lower therefore signals a response near the control.
